This is an account of results in ChEMBL document CHEMBL1153514, “Fundamental relationships between structure, reactivity, and biological activity for the duocarmycins and CC-1065” (J Med Chem, 2009).

A short description of series [1]: Stability assessed as half life at pH 3. The format is physicochemical. As to conditions: buffer.
Series [2] in a line: Stability assessed as half life at pH 7. As to conditions: buffer. The class given is physicochemical.
The subject of a further series is L1210. The experiment in a line: Cytotoxicity against mouse L1210 cells. The class given is functional, cell-based.
A short description of series [3]: Stability assessed as half life at pH 2. The class given is physicochemical. As to conditions: buffer.

As for `CNC(=O)N1C[C@H]2C[C@@]23C1=CC(=O)c1ccccc13`, the half-life in series [1] worked out at 0.6 h.
The same measure, in the same setting: the same measure for `COC(=O)N1C[C@H]2C[C@@]23C1=CC(=O)c1ccccc13`: 0.95 h.
Turning to `CCS(=O)(=O)N1C[C@H]2C[C@@]23C1=CC(=O)c1ccccc13`, in series [1], the half-life turned out to be 6.38 h.
For the molecule `CC(C)(C)OC(=O)N1CC[C@H]2C[C@@]23C1=CC(=O)c1ccccc13`, the half-life in series [2] was 544 h.
As for `COC(=O)c1cc2c([nH]1)C(=O)C=C1N(C(=O)OC(C)(C)C)C[C@H]3C[C@]123`, the Stability entry in series [2] is “Stable”.
In the series on L1210, `COc1cc2cc(C(=O)N3C[C@H]4C[C@@]45C3=CC(=O)c3ccccc35)[nH]c2c(OC)c1OC` gave an IC50 of 0.02 nM. In addition, in series [1], the half-life was 133 h.
On to `CC(C)(C)OC(=O)N1C[C@H]2C[C@@]23C1=CC(=O)c1ccc(C#N)cc13`, for which the half-life in series [1] is 3.55 h.
In the case of `CCC(=O)N1C[C@H]2C[C@@]23C1=CC(=O)c1ccccc13`, the half-life in series [1] came to 1.6 h.
With `O=C1C=C2NC[C@H]3C[C@@]23c2ccccc21`, the half-life in series [1] is 4200 h. For the same molecule, in series [2], the Stability entry is “Stable”.
For `COC(=O)c1cc2c([nH]1)[C@@]13C[C@@H]1CN(C(=O)OC(C)(C)C)C3=CC2=O`, half-maximal inhibition with L1210 (IC50) required 33 nM.
Turning to `COc1cc2cc(CN3C[C@H]4C[C@@]45C3=CC(=O)c3ccccc35)[nH]c2c(OC)c1OC`, it took 1400 nM to reach half-maximal inhibition in the series on L1210 (IC50). In addition, the t1/2 in series [1] came to 1291.7 days.
Molecule `COC(=O)c1cccc2c1C(=O)C=C1N(C(=O)OC(C)(C)C)C[C@H]3C[C@]123` returned an IC50 with L1210 of 70 nM. Also, the half-life in series [1] was determined as 3.93 h.
In the case of `O=C1C=C2N(c3ccccc3)C[C@H]3C[C@@]23c2ccccc21`, in the series on L1210, the IC50 amounted to 1100 nM. Further, in series [3], the half-life was 171 h.
On the same counts, the results for `COc1ccc(N2C[C@H]3C[C@@]34C2=CC(=O)c2ccccc24)cc1` are 3200 nM and 198 h.
`Cc1csc2c1[C@@]13C[C@@H]1CN(C(=O)OC(C)(C)C)C3=CC2=O` returned an IC50 in the series with L1210 of 30 nM. Further, the half-life in series [1] was 206 h.
In the series on L1210, `COC(=O)c1cc2c([nH]1)[C@@]13C[C@@H]1CN(C(=O)c1cc4cc(OC)c(OC)c(OC)c4[nH]1)C3=CC2=O` showed an IC50 of 0.05 nM.
For `COC(=O)c1ccc(N2C[C@H]3C[C@@]34C2=CC(=O)c2ccccc24)cc1`, the IC50 in the series with L1210 stood at 330 nM. Moreover, the half-life in series [3] was 138 h.
In the series with L1210, `COC(=O)C1=NC2=C(OCc3ccccc3)C=C3N(C(=O)c4cc5cc(OC)c(OC)c(OC)c5[nH]4)C[C@H]4C[C@@]34C2=C1` returned an IC50 of 5 nM. Also, the half-life in series [1] is 0.417 h; in series [2] it was 0.717 h.
In turn, `Cc1cc2c(s1)[C@@]13C[C@@H]1CN(C(=O)OC(C)(C)C)C3=CC2=O` showed an IC50 in the series with L1210 of 25 nM. Further, the half-life in series [1] was 209 h.
On to `O=C1C=C2CC[C@H]3C[C@@]23c2ccccc21`, for which the values for the half-life in series [1] and in series [2] were 1.3 h and 4 h, respectively.
Regarding `CC(C)(C)OC(=O)N1CCC[C@H]2C[C@@]23C1=CC(=O)c1ccccc13`, the IC50 in the series with L1210 was found to be 5000 nM. In addition, the half-life in series [1] was 0.03 h; in series [2], 2.1 h.
Consider `CC(C)(C)OC(=O)N1C[C@H]2C[C@@]23C1=CC(=O)c1ccccc13`, for which the Stability entry in series [2] was “Stable”.
Consider `COc1ccc2c(c1)[C@@]13C[C@@H]1CN(C(=O)OC(C)(C)C)C3=CC2=O`, for which, in series [1], the half-life was 1.83 h.
As for `COC(=O)c1cc2c([nH]1)C(=O)C=C1N(C(=O)c3cc4cc(OC)c(OC)c(OC)c4[nH]3)C[C@H]3C[C@]123` [DUOCARMYCIN], the half-life in series [1] was 177 h. The Stability result in series [2] was “Stable”.
